As a reminder, the EC50 is the concentration at which the effect is half-maximal. For orientation: half-life means the time needed for the level to fall by half in the phase considered. For orientation: IC50 means the concentration at which inhibition is half-maximal. The term Papp denotes the rate of passage across a membrane or cell layer, normalised by area and donor concentration. A word on the solubility: it is the dissolved amount per volume that the medium holds.

The structures appear in SMILES notation. In brackets after ≈: the same amount, converted by molar mass.

35 compounds from ChEMBL document CHEMBL5260850, “The exploration of aza-quinolines as hematopoietic prostaglandin D synthase (H-PGDS) inhibitors with low brain exposure” (Bioorg Med Chem, 2020) can be followed below.

Series [1] deals with T1, Hematopoietic prostaglandin D synthase (Rattus norvegicus, UniProt O35543).
T1 sequence (O35543 whole entry): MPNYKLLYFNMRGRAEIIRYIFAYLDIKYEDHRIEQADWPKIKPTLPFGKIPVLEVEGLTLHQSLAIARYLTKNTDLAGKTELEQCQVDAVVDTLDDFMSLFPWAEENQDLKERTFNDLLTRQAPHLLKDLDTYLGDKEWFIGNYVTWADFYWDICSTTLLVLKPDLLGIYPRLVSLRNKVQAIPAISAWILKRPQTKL
Kind of series: Inhibition of H-PGDS in rat RBL cells assessed as reduction in A23187-induced PGD2 production pretreated for 30 mins followed by A23187 addition for 30 mins by RapidFire Mass spectrometry. It counts as cell-based.

The nature of series [2]: Half life in mouse liver microsomes pretreated for 5 mins followed by incubation with NADP for 30 secs and measured upto 45 mins by LC-MS/MS analysis. Format: ADME, Microsome. Conditions: time 3030 sec.
Series [3] can be described thus: Dose normalized AUC in mouse at 3 mg/kg, po. Also on record: unit not given here. It counts as ADME, organism-based. To be noted: in vivo.
Series [4] has as its target Hematopoietic prostaglandin D synthase (Homo sapiens, UniProt O60760). Kind of series: Inhibition of human H-PGDS expressed in Escherichia coli BL21 DE3 cells assessed as reduction in PGD2 production using PGH2 as substrate by RapidFire High Throughput Mass spectrometry.
A short description of series [5]: Apparent permeability, Papp of the compound at pH 7.4 incubated for 3 hrs by AMP based liquid chromatography. Conditions: not told. It counts as ADME.
In a further series the target is Albumin (Homo sapiens, UniProt P02768). Kind of series: Protein binding in human serum albumin by HPLC analysis. Format: ADME, cell-free. Conditions: read-out: PB (converted).
The nature of series [6]: Solubility of the compound in FaSSIF at pH 6.5 measured after 4 hrs by HPLC-UV analysis. It counts as ADME.

Albumin, sequence (P02768 whole entry): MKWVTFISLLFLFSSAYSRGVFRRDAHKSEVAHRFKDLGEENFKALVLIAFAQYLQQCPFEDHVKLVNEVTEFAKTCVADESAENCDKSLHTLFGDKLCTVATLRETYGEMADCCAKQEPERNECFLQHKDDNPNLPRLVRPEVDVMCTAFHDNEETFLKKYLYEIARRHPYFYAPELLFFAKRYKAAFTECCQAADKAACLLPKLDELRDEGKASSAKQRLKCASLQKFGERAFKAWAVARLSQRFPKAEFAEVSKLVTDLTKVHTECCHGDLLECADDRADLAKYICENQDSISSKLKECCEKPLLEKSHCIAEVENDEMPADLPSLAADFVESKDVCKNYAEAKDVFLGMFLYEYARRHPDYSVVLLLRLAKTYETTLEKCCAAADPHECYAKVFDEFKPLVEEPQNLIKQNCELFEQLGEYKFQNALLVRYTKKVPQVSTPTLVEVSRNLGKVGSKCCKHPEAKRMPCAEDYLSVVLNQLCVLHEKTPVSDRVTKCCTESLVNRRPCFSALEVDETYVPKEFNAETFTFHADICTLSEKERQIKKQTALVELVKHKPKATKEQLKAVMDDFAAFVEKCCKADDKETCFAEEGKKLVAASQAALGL
Hematopoietic prostaglandin D synthase (Homo sapiens, UniProt O60760), sequence (O60760 whole entry): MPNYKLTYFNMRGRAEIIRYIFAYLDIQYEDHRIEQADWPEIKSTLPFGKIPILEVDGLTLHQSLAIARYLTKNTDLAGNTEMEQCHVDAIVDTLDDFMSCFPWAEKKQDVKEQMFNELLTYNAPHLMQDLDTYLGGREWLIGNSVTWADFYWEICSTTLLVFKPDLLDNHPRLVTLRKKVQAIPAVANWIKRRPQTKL

For `C[C@]1(O)C[C@H](NC(=O)c2cnc3nc(C4CC4)c(Cl)cc3c2)C1`, the 50% effective concentration (EC50) in series [1] is 190 nM. The half-life in series [2] was greater than 3 h. The same compound had an AUC/dose in series [3] of 362. The IC50 in series [4] was 6.4 nM. Further, the apparent permeability (Papp) at 3 h in series [5] amounted to 15 ×10⁻⁶ cm/s. For the same compound, the fraction unbound at Albumin was 0.14. This compound also yielded a solubility at 4 h in series [6] of 700 µg/mL (≈ 2110 µM).
For the compound `CC(C)(O)[C@H]1CC2(C[C@H](NC(=O)c3cnc4nc(C5CC5)ccc4c3)C2)C1` (stereo partly specified), the EC50 in series [1] came to 32 nM. Further, the half-life in series [2] is greater than 3 h. Further, the AUC/dose in series [3] was 477. Also, the IC50 in series [4] was determined as 3.9 nM. For the same compound, in series [5], the Papp at 3 h came to 4.5 ×10⁻⁶ cm/s. The fraction unbound on Albumin is 0.14. In addition, the solubility at 4 h in series [6] is 35 µg/mL (≈ 95.8 µM).
Regarding `CC(C)(O)[C@H]1C[C@H](NC(=O)c2cnc3nc(C4CC4)ccc3c2)C1`, the EC50 in series [1] came out at 280 nM. In addition, the half-life in series [2] is greater than 3 h. In series [3], this compound had an AUC/dose of 77.5. In addition, the IC50 in series [4] was determined as 36 nM. Also, the fraction unbound at Albumin is 0.26. The compound also displayed a solubility at 4 h in series [6] of 100 µg/mL (≈ 307 µM).
For `CC(C)(O)[C@H]1CC[C@H](NC(=O)c2cnc3nc(N4CC(F)C4)ccc3c2)CC1`, in series [1], the EC50 stood at 1000 nM. Also, the IC50 in series [4] was 13 nM.
The matching figures for `CC(C)(O)[C@H]1CC[C@H](NC(=O)c2cnc3nc(C4CC4)c(Cl)cc3c2)CC1`: 5.2 nM and 4.7 nM.
Take `O=C(N[C@H]1CCNC1=O)c1cnc2cc(C3CC3)ncc2c1`: the EC50 in series [1] was 260 nM. Further, in series [2], the half-life is 2.45 h. In series [3], this compound came in with an AUC/dose of 262. Further, the IC50 in series [4] was found to be 110 nM. Besides, the Papp at 3 h in series [5] came to 3 ×10⁻⁶ cm/s. Moreover, the fraction unbound at Albumin was 0.57. The same compound yielded a solubility at 4 h in series [6] of 430 µg/mL (≈ 1450 µM).
Turning to `CC(C)(O)[C@H]1CC[C@H](NC(=O)c2cnc3nc(N4CCC4)ncc3c2)CC1`, the EC50 in series [1] is 340 nM. The half-life in series [2] was found to be 2.43 h. In series [3], this compound showed an AUC/dose of 23.4. Also, the IC50 in series [4] was 12 nM. In series [5], the Papp at 3 h is less than 1 ×10⁻⁶ cm/s. Further, at Albumin, the fraction unbound was 0.46. The compound also had a solubility at 4 h in series [6] of 210 µg/mL (≈ 568 µM).
For `C[C@H]1CCN1c1nc2ncc(C(=O)N[C@H]3C[C@H](C(C)(C)O)C3)cc2cc1Cl`, the EC50 in series [1] is less than 2.5 nM. The IC50 in series [4] is 3.1 nM.
The matching figures for `CC(C)(O)[C@H]1CC[C@H](NC(=O)c2cnc3nc(NCC(F)F)ccc3c2)CC1`: 12000 nM and 150 nM.
The matching figures for `C[C@@H]1CCN1c1ccc2cc(C(=O)N[C@H]3CC[C@H](C(C)(C)O)CC3)cnc2n1`: 3000 nM and 310 nM.
The matching figures for `CC(C)(O)[C@H]1CC[C@H](NC(=O)c2cnc3nc(NCC(F)(F)F)ccc3c2)CC1`: 9600 nM and 690 nM.
On to `C[C@H]1CCN1c1nc2ncc(C(=O)N[C@H]3C[C@](C)(O)C3)cc2cc1Cl`, for which the EC50 in series [1] turned out to be 4.7 nM. The IC50 in series [4] was determined as 5 nM.
On to `CC(C)(O)C1CC2(CC(NC(=O)c3cnc4nc(C5CC5)ccc4c3)C2)C1` (stereo unspecified), for which the EC50 in series [1] (rbl) was found to be 29 nM. Further, in series [2], the half-life is greater than 3 h. The same compound had an AUC/dose in series [3] of 441. Further, the IC50 in series [4] was found to be 4.9 nM. The Papp at 3 h in series [5] was determined as 5.4 ×10⁻⁶ cm/s. Further, at Albumin, the fraction unbound was 0.14. The amount in solution in series [6] (solubility at 4 h) came to 34 µg/mL (≈ 93 µM).
Regarding `CC(C)c1ccc2cc(C(=O)N[C@H]3CC[C@H](C(C)(C)O)CC3)cnc2n1`, the EC50 in series [1] is 64 nM. The half-maximal inhibitory concentration (IC50) in series [4] amounted to 8.5 nM.
In the same order, the values of `C[C@]1(O)C[C@@H](NC(=O)c2cnc3nc(C4CC4)ccc3c2)C1` are 1300 nM and 160 nM.
In the same order, the values of `O=C(N[C@H]1CC[C@H](N2CC(F)(F)C2)CC1)c1cnc2cc(C3CC3)ncc2c1` are 88 nM and 14 nM.
Take `O=C(N[C@H]1CC[C@H](N2CC(F)(F)C2)CC1)c1cnc2nc(C3CC3)ccc2c1`: the EC50 in series [1] was determined as 50 nM. Further, in series [4], the IC50 amounted to 14 nM.
In the same order, the values of `CC(C)(O)[C@H]1CC[C@H](NC(=O)c2cnc3nc(N4CCC4)c(Cl)cc3c2)CC1` are 3.9 nM and 2.4 nM.
Regarding `C[C@@H]1CCN1c1cc2ncc(C(=O)N[C@H]3CC[C@H](C(C)(C)O)CC3)cc2cn1`, in series [1], the EC50 came to 450 nM. In series [4], the IC50 was 160 nM.
As to `C[C@H]1CCN1c1nc2ncc(C(=O)N[C@H]3C[C@@](C)(O)C3)cc2cc1Cl`, the concentration giving a half-maximal response (EC50) in series [1] was less than 2.5 nM. Besides, the half-inhibitory concentration (IC50) in series [4] is 5 nM.
With `O=C(N[C@H]1CC[C@H](N2CC(F)C2)CC1)c1cnc2cc(C3CC3)ncc2c1`, the EC50 in series [1] was 280 nM. Moreover, in series [2], the half-life was greater than 3 h. Also, in series [3], the AUC/dose is listed as 358. For the same compound, the IC50 in series [4] was 35 nM. Besides, in series [5], the Papp at 3 h was 27 ×10⁻⁶ cm/s. Also, in series [6], the solubility at 4 h was greater than 1000 µg/mL.
Turning to `CC(C)(O)[C@H]1CC[C@H](NC(=O)c2cnc3nc(C4CCC4)ccc3c2)CC1`, the EC50 in series [1] is 120 nM. The IC50 in series [4] was found to be 10 nM.
The matching figures for `COc1ccc2cc(C(=O)N[C@H]3CC[C@H](C(C)(C)O)CC3)ccc2c1`: greater than 50000 nM and 1300 nM.
Turning to `O=C(N[C@H]1CC[C@H](N[C@H](CO)C(F)(F)F)CC1)c1cnc2cc(C3CC3)ncc2c1`, the 50% effective concentration (EC50) in series [1] was 310 nM. Further, the half-life in series [2] is greater than 3 h. Moreover, the AUC/dose in series [3] was determined as 693. Besides, the IC50 in series [4] was 31 nM. Besides, the Papp at 3 h in series [5] was found to be 18 ×10⁻⁶ cm/s. The same compound registered a solubility at 4 h in series [6] of 100 µg/mL (≈ 237 µM).
For `CC(C)(O)[C@H]1CC[C@H](NC(=O)c2cnc3nc(OCC(F)(F)F)ccc3c2)CC1`, the EC50 in series [1] was 1100 nM. For the same compound, the IC50 in series [4] came out at 350 nM.
`O=C(N[C@H]1CCNC1=O)c1cnc2nc(C3CC3)ccc2c1`: the EC50 in series [1] was found to be 640 nM. Also, the IC50 in series [4] stood at 44 nM.
With `C[C@H]1CCN1c1cc2ncc(C(=O)N[C@H]3CC[C@H](C(C)(C)O)CC3)cc2cn1`, in series [1], the EC50 is 50 nM. Moreover, the concentration for half-maximal inhibition (IC50) in series [4] turned out to be 4.8 nM.
Consider `O=C(N[C@H]1CCNC1=O)c1cnc2nc(N3CCC3)ccc2c1`, for which the concentration giving a half-maximal response (EC50) in series [1] is 6000 nM. The IC50 in series [4] was 71 nM.
In the same order, the values of `CC(C)(O)[C@]12C[C@@](NC(=O)c3cnc4cc(C5CC5)ncc4c3)(C1)C2` are 210 nM and 38 nM.
In the same order, the values of `C[C@]1(O)C[C@H](NC(=O)c2cnc3nc(C4CC4)ccc3c2)C1` are 7400 nM and 300 nM.
For the compound `CC(C)(O)[C@H]1CC[C@H](NC(=O)c2cnc3nc(C4CC4)ncc3c2)CC1`, the half-maximal effective concentration (EC50) in series [1] is 170 nM. For the same compound, the half-life in series [2] was greater than 3 h. Moreover, the AUC/dose in series [3] was 204. Further, the IC50 in series [4] stood at 6.4 nM. In series [5], the apparent permeability (Papp) at 3 h was found to be 2.2 ×10⁻⁶ cm/s. Further, the fraction unbound at Albumin is 0.36.
`C[C@]1(O)C[C@@H](NC(=O)c2cnc3cc(C4CC4)ncc3c2)C1`: in series [1], the EC50 was 910 nM. In series [4], the concentration for half-maximal inhibition (IC50) came to 290 nM.
In the same order, the values of `C[C@H]1CCN1c1nc2ncc(C(=O)N[C@H]3CC[C@H](C(C)(C)O)CC3)cc2cc1Cl` are 3.9 nM and 3.8 nM.
The matching figures for `COc1nc2ncc(C(=O)N[C@H]3CC[C@H](C(C)(C)O)CC3)cc2cc1Cl`: 22 nM and 6.6 nM.
The matching figures for `C[C@]1(O)C[C@@H](NC(=O)c2cnc3nc(N4CCC4)ccc3c2)C1`: 17000 nM and 140 nM.
